Data from ChEMBL document CHEMBL4732190, “Identification of Potent and Long-Acting Single-Chain Peptide Mimetics of Human Relaxin-2 for Cardiovascular Diseases” (J Med Chem, 2021).
*1 amine or outer side, *2 acyl side, *3 side chain or, on linkers, in order; H or OH if unused. Where a SMILES comes first, the peptide text is derived from it. [ ]: non-standard residue; d: D form. The star is where a group is joined. PEG11 = NCCOCCOCCOCCOCCOCCOCCOCCOCCOCCOCCOCCC(=O)O; X1 = CCCCCCCCCCCCCCCCC(=O)[C@H](CCC(N)=O)N*; β2hAla(2S) = C[C@@H](CN[*:1])C(=O)[*:2]

Tests used:
Relaxin receptor 1 [1] = target: T1, Relaxin receptor 1 (Homo sapiens, UniProt Q9HBX9); assay: Agonist activity at RXFP1 endogenously expressed in human OVCAR-5 cells assessed as increase in IBMX-induced cAMP accumulation pretreated with IBMX for 40 mins followed by compound addition and measured after 30 mins in presence of 2 % HSA by HTRF assay; format: functional, cell-based
T1 sequence (Q9HBX9 whole entry): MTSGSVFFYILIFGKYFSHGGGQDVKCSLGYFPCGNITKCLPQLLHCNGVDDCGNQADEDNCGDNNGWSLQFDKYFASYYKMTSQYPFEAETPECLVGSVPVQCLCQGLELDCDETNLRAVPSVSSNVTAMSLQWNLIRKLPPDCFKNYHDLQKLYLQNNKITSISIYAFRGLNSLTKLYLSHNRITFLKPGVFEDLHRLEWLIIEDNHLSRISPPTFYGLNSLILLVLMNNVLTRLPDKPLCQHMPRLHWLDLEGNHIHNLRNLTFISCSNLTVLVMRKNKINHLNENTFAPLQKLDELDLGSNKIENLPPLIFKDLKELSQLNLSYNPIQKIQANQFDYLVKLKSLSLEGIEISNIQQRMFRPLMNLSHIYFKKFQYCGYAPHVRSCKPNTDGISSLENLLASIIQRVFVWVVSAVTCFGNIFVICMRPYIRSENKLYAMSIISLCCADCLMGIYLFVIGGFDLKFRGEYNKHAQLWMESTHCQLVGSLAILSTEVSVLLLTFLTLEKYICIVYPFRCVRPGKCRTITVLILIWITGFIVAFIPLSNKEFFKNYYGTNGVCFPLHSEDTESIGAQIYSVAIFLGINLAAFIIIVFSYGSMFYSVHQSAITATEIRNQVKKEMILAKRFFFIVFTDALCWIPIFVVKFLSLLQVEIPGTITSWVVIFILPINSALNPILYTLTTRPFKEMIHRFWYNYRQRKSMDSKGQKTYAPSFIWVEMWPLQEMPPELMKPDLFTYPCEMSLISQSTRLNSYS

[2] = target: T2, Relaxin receptor 1 (Homo sapiens) (UniProt Q9HBX9); assay: Agonist activity at RXFP1 endogenously expressed in human OVCAR-5 cells assessed as increase in IBMX-induced cAMP accumulation pretreated with IBMX for 40 mins followed by compound addition and measured after 30 mins by HTRF assay relative to relaxin; format: functional, cell-based; details: filed as agonist
T2 sequence (whole entry): T1 sequence (Q9HBX9 whole entry)

[3] = target: T2, Relaxin receptor 1 (Homo sapiens); assay: Selectivity ratio of EC50 for agonist activity at RXFP1 endogenously expressed in human OVCAR-5 cells in presence of 2 % HSA to EC50 for agonist activity at RXFP1 endogenously expressed in human OVCAR-5 cells in absence of HSA; format: cell-based
[4] = target: T3, Relaxin receptor 1 (Rattus norvegicus) (UniProt Q6R6I6); assay: Selectivity index, ratio of EC50 for agonist activity at rat RXFP1 expressed in human […] cells in presence of RSA by HTRF assay to EC50 for EC50 for agonist activity at rat RXFP1 expressed in human […] cells in absence of RSA by HTRF assay; format: cell-based; details: HEK293, time 30.0 min
T3 sequence (whole entry): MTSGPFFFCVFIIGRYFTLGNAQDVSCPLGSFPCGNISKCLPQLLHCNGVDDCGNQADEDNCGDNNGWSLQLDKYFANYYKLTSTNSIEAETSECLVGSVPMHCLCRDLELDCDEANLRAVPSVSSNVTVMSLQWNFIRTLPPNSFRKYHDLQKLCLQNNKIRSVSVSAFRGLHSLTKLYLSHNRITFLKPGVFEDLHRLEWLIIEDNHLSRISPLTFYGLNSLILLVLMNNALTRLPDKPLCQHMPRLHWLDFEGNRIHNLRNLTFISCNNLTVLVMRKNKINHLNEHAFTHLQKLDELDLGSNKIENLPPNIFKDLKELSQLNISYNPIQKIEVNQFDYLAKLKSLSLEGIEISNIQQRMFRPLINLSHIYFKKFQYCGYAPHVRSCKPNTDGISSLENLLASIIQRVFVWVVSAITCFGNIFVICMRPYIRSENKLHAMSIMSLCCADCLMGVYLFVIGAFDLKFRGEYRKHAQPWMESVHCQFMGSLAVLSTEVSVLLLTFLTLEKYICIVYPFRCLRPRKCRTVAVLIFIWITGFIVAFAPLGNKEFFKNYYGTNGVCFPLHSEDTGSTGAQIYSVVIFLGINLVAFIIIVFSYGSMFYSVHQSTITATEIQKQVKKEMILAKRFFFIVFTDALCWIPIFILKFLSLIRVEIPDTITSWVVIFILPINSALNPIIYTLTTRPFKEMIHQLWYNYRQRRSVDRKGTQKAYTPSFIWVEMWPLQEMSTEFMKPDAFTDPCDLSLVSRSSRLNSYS

Relaxin receptor 1 [5] = target: T4, Relaxin receptor 1 (Rattus norvegicus, UniProt Q6R6I6); assay: Agonist activity at rat RXFP1 expressed in human […] cells assessed as increase in IBMX-induced cAMP accumulation pretreated with IBMX for 40 mins followed by compound addition and measured after 30 mins by HTRF assay; format: cell-based, HEK293
T4 sequence (Q6R6I6 whole entry): T3 sequence (whole entry)

[6] = Positive chronotropic activity in pithed Sprague-Dawley rat assessed as increase in heart rate at 20 to 1000 mg/kg, iv administered as bolus dose measured after 60 mins post dose; format: ADME, organism-based; details: in vivo, 1 h, dose 20-1000 mg/kg
[7] = target: T2, Relaxin receptor 1 (Homo sapiens); assay: Agonist activity at RXFP1 endogenously expressed in human OVCAR-5 cells assessed as increase in IBMX-induced cAMP accumulation pretreated with IBMX for 40 mins followed by compound addition and measured after 30 mins in presence of 2 % HSA by HTRF assay relative to control; format: functional, cell-based; details: filed as agonist
[8] = Positive chronotropic activity in pithed Sprague-Dawley rat assessed as increase in heart rate at 1000 mg/kg, iv administered as bolus dose measured after 60 mins post dose; format: ADME, organism-based; details: in vivo, 1 h
[9] = Half life in Sprague-Dawley rat at 1 mg/kg, iv measured upto 72 hrs by LC-HRMS analysis; format: ADME, organism-based; details: in vivo
Relaxin receptor 1 [10] = target: T1, Relaxin receptor 1; assay: Agonist activity at RXFP1 endogenously expressed in human OVCAR-5 cells assessed as increase in IBMX-induced cAMP accumulation pretreated with IBMX for 40 mins followed by compound addition and measured after 30 mins by HTRF assay; format: functional, cell-based
[11] = target: T3, Relaxin receptor 1 (Rattus norvegicus); assay: Agonist activity at rat RXFP1 expressed in human […] cells assessed as increase in IBMX-induced cAMP accumulation pretreated with IBMX for 40 mins followed by compound addition and measured after 30 mins by HTRF assay relative to control; format: cell-based; details: HEK293, filed as agonist
[12] = Stability in rat blood assessed as parent compound at 5 uM remaining after 4 hrs; format: ADME, tissue-based; details: read-out: Stabilty
[13] = Stability in human blood assessed as parent compound at 5 uM remaining after 4 hrs; format: ADME, tissue-based; details: read-out: Stabilty

## CCCCCCCCCCCCCCCCC(=O)[C@H](CCC(N)=O)NC(=O)[C@H](CCC(=O)O)NC(=O)[C@H](CCC(=O)O)NC(=O)[C@H](CCCCN)NC(=O)CCOCCOCCOCCOCCOCCOCCOCCOCCOCCOCCOCCNC(=O)[C@H](CCCCN)NC(=O)[C@H](CCCNC(=N)N)NC(=O)[C@@H](C)CNC(=O)[C@H](CO)NC(=O)[C@H](Cc1c[nH]c2ccccc12)NC(=O)[C@@H](NC(=O)[C@H](CO)NC(=O)[C@H](CCSC)NC(=O)CNC(=O)[C@H](CCC(=O)O)NC(=O)[C@@H](C)CNC(=O)[C@@H](C)CNC(=O)[C@@H](NC(=O)[C@H](CCC(N)=O)NC(=O)[C@H](C)NC(=O)[C@H](CCCNC(=N)N)NC(=O)[C@@H](NC(=O)[C@H](CCCCN)NC(=O)[C@H](CCC(=O)O)NC(=O)[C@H](CCCNC(=N)N)NC(=O)[C@H](CCC(=O)O)NC(=O)CNC(=O)[C@H](CCC(=O)O)NC(=O)[C@H](CC(C)C)NC(C)=O)C(C)C)[C@@H](C)CC)[C@@H](C)O (Ac-LEGEREKVRAQI[β2hAla(2S)][β2hAla(2S)]EGMSTWS[β2hAla(2S)]RK[PEG11]KEE-X1)
Relaxin receptor 1 [1]
  EC50: 270 nM
[2]
  Emax: 88%
[3]
  Ratio EC50: 75
[4]
  Ratio EC50: 33
Relaxin receptor 1 [5]
  EC50: 0.9 nM
[6]
  Activity: Dose-dependent effect
[7]
  Emax: 88%
[8]
  Emin: 30%
[9]
  half-life: 8.9 h
Relaxin receptor 1 [10]
  EC50: 3.6 nM
[11]
  Emax: 79%

## CCCCCCCCCCCCCCCCC(=O)[C@H](CCC(N)=O)NC(=O)[C@H](CCC(=O)O)NC(=O)[C@H](CCC(=O)O)NC(=O)[C@H](CCCCN)NC(=O)[C@H](CCCCN)NC(=O)[C@H](CCCNC(=N)N)NC(=O)[C@@H](C)CNC(=O)[C@H](CO)NC(=O)[C@H](Cc1c[nH]c2ccccc12)NC(=O)[C@@H](NC(=O)[C@H](CO)NC(=O)[C@H](CCSC)NC(=O)CNC(=O)[C@H](CCC(=O)O)NC(=O)[C@@H](C)CNC(=O)[C@@H](C)CNC(=O)[C@@H](NC(=O)[C@H](CCC(N)=O)NC(=O)[C@H](C)NC(=O)[C@H](CCCNC(=N)N)NC(=O)[C@@H](NC(=O)[C@H](CCCCN)NC(=O)[C@H](CCC(=O)O)NC(=O)[C@H](CCCNC(=N)N)NC(=O)[C@H](CCC(=O)O)NC(=O)CNC(=O)[C@H](CCC(=O)O)NC(=O)[C@H](CC(C)C)NC(C)=O)C(C)C)[C@@H](C)CC)[C@@H](C)O (Ac-LEGEREKVRAQI[β2hAla(2S)][β2hAla(2S)]EGMSTWS[β2hAla(2S)]RKKEE-X1)
Relaxin receptor 1 [1]
  EC50: > 3000 nM
[12]
  remaining at 4 h, 5 µM: 93%
[2]
  Emax: 97%
[13]
  remaining at 4 h, 5 µM: 91%
[3]
  Ratio EC50: > 170
[9]
  half-life: 4.3 h
Relaxin receptor 1 [10]
  EC50: 17.6 nM
